Key:
[1] = system: TRPM2-expressing HEK-293 cells; test: Cell viability assay (calcein fluorescence), tet-inducible TRPM2 HEK-293 cells; assay type: cell-based
Experimental: Shown are HEK-293 cells (closed diamond) and HEK-293 cells stably transfected with a tet-controlled TRPM2 construct in the presence (open squares) or absence of (open diamonds) tetracycline. […] TRPM2-expressing HEK-293 cells were grown in complete DMEM media and 1 μg/ml tetracycline until 80-90% confluent. One set of cells were re-fed with the same complete media (closed diamonds) and the other set of cells were rinsed with PBS and fed with modified media containing 1 μg/ml tetracycline, 5 mM EGTA and without calcium chloride (open squares). […] HEK-293 (close diamond) and TRPM2 expressing HEK-293 cells in the absence (open diamond) or presence of (closed square) tetracycline were exposed to 0-10 μg/ml cycloheximide for 16 h. Cell viability was determined as described in (a).
TRPM2-expressing HEK-293 cells were exposed to 0-50 μM puromycin for 16 h in the presence (open diamond) or absence (closed diamond) of 500 μM nicotinamide. […] TRPM2-expressing HEK-293 cells were exposed to 0-50 μM puromycin for 16 h in the presence (open diamond) or absence (closed diamond) of 1.5 mM 3-aminobenzamide. Cell survival was determined as described in (a).
HEK-293 and tetracycline (tet)-inducible HEK-293 TRPM2-expressing cells (23) were cultured in DMEM and 10% FBS at 37° C., 5% CO2. Media used to culture tet-inducible HEK-293 cells was supplemented with blasticidin (5 μg ml^−1; Invitrogen) and zeocin (0.4 mg/ml; Invitrogen). To induce expression of TRPM2 in recombinant HEK-293 cells, tetracycline was added to the media at 1 μg ml^−1 (Invitrogen) 24 h prior to experiments. The CRI-G1 rat β-islet tumor cell line was obtained from EACC and cultured in DMEM, 10% FBS and 2 mM glutamine.
HEK-293, tet-inducible HEK-293, and CRI-G1 cells were seeded into 6 well plates at a density of 500,000 cells per well. When cells were 50-70% confluent, puromycin was added to the media at various concentrations for 16 hours. Cell monolayers were rinsed with PBS, after which 0.5 ml of 2 μM calcein in PBS was added directly to the well for 10-20 minutes. Calcein is retained in living, but not dead cells, where it undergoes catalytic conversion into a fluorescent compound Fluorescence in each well was measured in a microplate reader using excitation and emission filters at 485/530 nm, respectively.

Sir2 homologs = test: NAD+-dependent histone deacetylase activity of HEK-293 protein extracts; assay type: biochemical; settings: data not shown
[2] = system: insulin-producing β-cells; settings: prophylactic treatment; alloxan and streptozotocin models (ref. 48); cited from earlier work
CRI-G1 cells = test: Cell viability assay (calcein fluorescence), CRI-G1 cells; assay type: cell-based, rat; settings: 0.5-20 mM nicotinamide, 20 μM puromycin, 16 h
Experimental: FIG. 4 a) OAADPr gates the endogenous TRPM2 channel in CRI-G1 cells. Left panel: Evolution of currents in CRI-G1 cells in the absence (grey squares) or presence (black circles) of OAADPr (120-250 μM). Shown are average leak subtracted currents from n=3 cells for each condition. Right panel: Representative leak subtracted whole cell I/V curves for peak currents observed in the absence (grey line) and presence (black line) of OAADPr. For the above measurements, CRI-G1 cells were maintained in the whole cell patch clamp configuration as previously described for HEK-293 cells (44). b) Puromycin leads to cell death in CRI-G1 cells. CRI-G1 cells were treated with 0-40 μM puromycin for 16 h. Cell viability was assessed by measuring fluorescence of calcein in live cells. Data obtained from 4 independent experiments were plotted as a percent change in fluorescence compared to those of untreated cells set at a 100%. Error bars indicate the standard deviation from the mean. (Inset) Nicotinamide rescues puromycin-induced death in CRI-G1 cells. […] Cell viability was assessed 16 h later as described above. […] Calcein is retained in living, but not dead cells, where it undergoes catalytic conversion into a fluorescent compound Fluorescence in each well was measured in a microplate reader using excitation and emission filters at 485/530 nm, respectively.

[3] = Spontaneous breakdown of OAADPr in the patch pipette; assay type: physicochemical; settings: multiple experiments
Experimental: (§1) Patch clamp electrophysiology was performed as previously described (23). Briefly, cells were patch clamped in the whole cell configuration at 25° C. using pipettes with resistances ranging from 2-3 MOhms. Currents were recorded on an EPC9 patch clamp amplifier with automatic capacitance compensation using a protocol generating a 50 msec voltage ramp from −100 to +100 mv every two seconds at a holding potential of 0 mv (appropriately corrected for liquid junction potential). Bath solution included 150 mM NaCl, 2.8 mM KCl, 5 mM CsCl, 1 mM CaCl2, 2 mM MgCl2, and 10 mM Hepes (pH 7.2). Pipette solution included 135 mM CsGlutamate, 1 mM MgCl2, 8 mM NaCl, 10 mM Hepes (pH 7.2), and 10 mM EGTA. For low-resolution presentation of current development over the course of the experiment, instantaneous currents at −80 mv were extracted from each ramp and plotted versus time.

TRPM2 channel = target: T1, TRPM2 channel (Homo sapiens, UniProt O94759); test: Whole cell patch clamp, TRPM2 channel gating in tet-induced TRPM2-expressing HEK-293 cells; assay type: cell-based; settings: OAADPr in patch pipette solution; similar kinetics and dose dependence to ADP-ribose
T1 construct: expressed in transfected cells; host or cells: tetracycline-inducible HEK-293
T1 sequence (O94759 whole entry): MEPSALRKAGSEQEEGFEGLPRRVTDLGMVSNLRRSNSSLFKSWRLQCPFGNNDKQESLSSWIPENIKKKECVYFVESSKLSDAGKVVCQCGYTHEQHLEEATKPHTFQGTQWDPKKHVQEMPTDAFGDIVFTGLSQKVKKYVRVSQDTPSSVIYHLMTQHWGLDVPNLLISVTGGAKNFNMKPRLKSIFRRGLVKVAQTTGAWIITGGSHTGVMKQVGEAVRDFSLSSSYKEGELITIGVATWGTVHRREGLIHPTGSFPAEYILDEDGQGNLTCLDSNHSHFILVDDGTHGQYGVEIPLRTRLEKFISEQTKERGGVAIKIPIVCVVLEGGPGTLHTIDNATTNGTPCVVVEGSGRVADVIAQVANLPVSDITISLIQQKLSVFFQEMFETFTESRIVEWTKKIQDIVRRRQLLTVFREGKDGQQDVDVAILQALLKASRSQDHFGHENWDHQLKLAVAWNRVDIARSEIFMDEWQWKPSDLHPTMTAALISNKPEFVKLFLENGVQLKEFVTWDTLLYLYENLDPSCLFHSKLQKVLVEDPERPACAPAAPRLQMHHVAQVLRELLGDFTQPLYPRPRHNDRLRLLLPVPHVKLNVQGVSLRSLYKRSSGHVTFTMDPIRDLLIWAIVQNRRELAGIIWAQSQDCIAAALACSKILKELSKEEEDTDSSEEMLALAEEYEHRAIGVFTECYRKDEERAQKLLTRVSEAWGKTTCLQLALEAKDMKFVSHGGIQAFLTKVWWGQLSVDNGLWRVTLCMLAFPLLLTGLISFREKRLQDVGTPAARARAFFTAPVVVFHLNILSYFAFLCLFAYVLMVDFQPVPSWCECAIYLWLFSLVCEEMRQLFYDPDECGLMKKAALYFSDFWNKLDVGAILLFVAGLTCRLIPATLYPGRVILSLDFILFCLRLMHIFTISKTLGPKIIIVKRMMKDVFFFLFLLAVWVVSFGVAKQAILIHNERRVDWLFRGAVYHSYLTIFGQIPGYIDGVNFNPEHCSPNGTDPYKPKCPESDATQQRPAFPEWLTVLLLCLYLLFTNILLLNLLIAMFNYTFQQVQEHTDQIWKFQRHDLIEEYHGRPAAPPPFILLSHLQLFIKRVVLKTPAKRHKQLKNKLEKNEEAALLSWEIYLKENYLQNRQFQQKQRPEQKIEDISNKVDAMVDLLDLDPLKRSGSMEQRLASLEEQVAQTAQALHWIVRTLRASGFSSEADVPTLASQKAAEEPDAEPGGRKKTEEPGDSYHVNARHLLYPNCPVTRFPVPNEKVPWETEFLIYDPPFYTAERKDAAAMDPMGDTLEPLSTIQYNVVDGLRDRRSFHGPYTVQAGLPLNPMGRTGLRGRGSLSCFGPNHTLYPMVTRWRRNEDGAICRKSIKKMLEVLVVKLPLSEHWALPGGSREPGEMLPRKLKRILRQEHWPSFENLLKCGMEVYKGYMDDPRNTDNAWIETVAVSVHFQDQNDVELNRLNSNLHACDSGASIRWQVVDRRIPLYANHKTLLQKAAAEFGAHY
Experimental: Shown is the development of whole cell currents over time in TRPM2-expressing HEK-293 cells. Bath solution was standard ringer's, and pipette solution was Cs-based and included 10 mM EGTA to buffer intracellular Ca^2+ to 10 nM. The patch pipette contained various concentrations of (FIG. 1a) ADPr, (FIG. 1b) OAADPr (FIG. 1c) OAADPr and puromycin as indicated in the figure. FIG. 1d.) Cytoplasmic OAADPr esterase activity is inhibited by puromycin. 200 μM O-[^3H]AADPr and 0-100 μM puromycin were added to cytoplasmic HEK-293 extract for 30 min. Percent hydrolysis of O-[^3H]AADPr to [^3H]acetate was measured as described hereinbelow. FIG. 1e.) Nuclear OAADPr acetyltransferase activity is not inhibited by puromycin. HEK-293 nuclear extract was incubated with 200 μM O-[^3H]AADPr in the presence or absence of 100 μM puromycin for 60 min. The reactions were quenched and resolved by HPLC. The radioactivity in collected fractions was determined by liquid scintillation counting. FIGS. 1f-g.) In vivo detection of OAADPr. Mass spectrum of HEK-293 generated OAADPr (peak m/z of 602.0894; the theoretical m/z for OAADPr is 602.0895) after puromycin treatment, with authentic [^13C]-OAADPr (peak m/z of 603.0851 and isotopic distribution of 604.0878 and 605.0928) as a standard. Peak 599.3691 is from the matrix.
as §1, with “For low-resolution presentation of current development over the course of the experiment, instantaneous currents at −80 mv were extracted from each ramp and plotted versus time.” left out

endogenous TRPM2 channel = target: T2, endogenous TRPM2 channel (Rattus norvegicus, UniProt E9PTA2); test: Whole cell patch clamp, endogenous TRPM2 channel in CRI-G1 cells; assay type: cell-based; settings: OAADPr 120-250 μM in patch pipette, n=3 cells
T2 construct: direct OAADPr-mediated gating of endogenous TRPM2 channels in CRI-G1 cells; endogenous in cells; host or cells: CRI-G1 rat beta-islet tumor cell line
T2 sequence (E9PTA2 whole entry): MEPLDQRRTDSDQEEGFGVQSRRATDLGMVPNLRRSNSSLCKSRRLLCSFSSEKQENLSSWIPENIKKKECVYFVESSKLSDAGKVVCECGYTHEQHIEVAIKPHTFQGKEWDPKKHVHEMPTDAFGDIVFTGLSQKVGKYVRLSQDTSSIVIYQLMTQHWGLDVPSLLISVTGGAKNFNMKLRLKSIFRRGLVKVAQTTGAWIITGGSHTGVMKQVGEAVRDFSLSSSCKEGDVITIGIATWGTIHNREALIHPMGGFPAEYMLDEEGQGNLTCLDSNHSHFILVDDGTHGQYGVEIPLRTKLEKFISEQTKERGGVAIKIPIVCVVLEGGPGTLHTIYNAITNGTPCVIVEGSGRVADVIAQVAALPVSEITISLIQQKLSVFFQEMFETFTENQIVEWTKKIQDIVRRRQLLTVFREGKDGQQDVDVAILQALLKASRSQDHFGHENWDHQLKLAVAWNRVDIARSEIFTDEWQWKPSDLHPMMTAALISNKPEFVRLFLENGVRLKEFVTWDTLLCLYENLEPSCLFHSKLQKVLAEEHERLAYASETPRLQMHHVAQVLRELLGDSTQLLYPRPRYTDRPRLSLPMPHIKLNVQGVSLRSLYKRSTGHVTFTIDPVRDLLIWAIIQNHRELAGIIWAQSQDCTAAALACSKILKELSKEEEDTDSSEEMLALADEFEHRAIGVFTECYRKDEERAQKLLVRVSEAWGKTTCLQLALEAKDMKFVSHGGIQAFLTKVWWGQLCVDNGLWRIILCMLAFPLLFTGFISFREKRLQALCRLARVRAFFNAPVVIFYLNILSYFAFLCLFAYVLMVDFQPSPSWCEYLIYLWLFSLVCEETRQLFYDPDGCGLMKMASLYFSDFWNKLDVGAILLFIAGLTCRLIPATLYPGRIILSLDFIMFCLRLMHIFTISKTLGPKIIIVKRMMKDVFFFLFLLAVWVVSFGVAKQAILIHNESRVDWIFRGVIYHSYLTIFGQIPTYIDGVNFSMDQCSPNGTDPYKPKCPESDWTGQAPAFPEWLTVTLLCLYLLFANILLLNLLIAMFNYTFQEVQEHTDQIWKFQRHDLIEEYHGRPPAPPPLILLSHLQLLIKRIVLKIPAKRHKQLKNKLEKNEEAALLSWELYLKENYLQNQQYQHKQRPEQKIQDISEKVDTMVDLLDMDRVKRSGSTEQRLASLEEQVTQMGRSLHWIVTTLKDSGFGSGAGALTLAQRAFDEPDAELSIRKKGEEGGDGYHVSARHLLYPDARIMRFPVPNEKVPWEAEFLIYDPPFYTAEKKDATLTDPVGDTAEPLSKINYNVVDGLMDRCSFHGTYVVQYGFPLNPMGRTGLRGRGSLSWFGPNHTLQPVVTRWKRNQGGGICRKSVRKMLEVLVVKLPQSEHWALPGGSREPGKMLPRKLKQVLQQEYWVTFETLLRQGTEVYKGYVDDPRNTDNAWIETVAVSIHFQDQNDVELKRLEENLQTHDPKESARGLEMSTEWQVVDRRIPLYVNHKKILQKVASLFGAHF
Experimental: FIG. 4 a) OAADPr gates the endogenous TRPM2 channel in CRI-G1 cells. Left panel: Evolution of currents in CRI-G1 cells in the absence (grey squares) or presence (black circles) of OAADPr (120-250 μM). Shown are average leak subtracted currents from n=3 cells for each condition. Right panel: Representative leak subtracted whole cell I/V curves for peak currents observed in the absence (grey line) and presence (black line) of OAADPr. For the above measurements, CRI-G1 cells were maintained in the whole cell patch clamp configuration as previously described for HEK-293 cells (44). b) Puromycin leads to cell death in CRI-G1 cells. CRI-G1 cells were treated with 0-40 μM puromycin for 16 h. Cell viability was assessed by measuring fluorescence of calcein in live cells. Data obtained from 4 independent experiments were plotted as a percent change in fluorescence compared to those of untreated cells set at a 100%. Error bars indicate the standard deviation from the mean. […] Cell viability was assessed 16 h later as described above. […]
Patch clamp electrophysiology was performed as previously described (23). […] Currents were recorded on an EPC9 patch clamp amplifier with automatic capacitance compensation using a protocol generating a 50 msec voltage ramp from −100 to +100 mv every two seconds at a holding potential of 0 mv (appropriately corrected for liquid junction potential). […]

Compound: NC(=O)c1cccc(N)c1 [3-aminobenzamide]
- effect on puromycin-induced cell death ([1]; 1.5 mM 3-aminobenzamide, 0-50 μM puromycin, 16 h): no effect

Compound: C[C@@H]1C[C@@H]([C@H](O)CC2CC(=O)NC(=O)C2)C(=O)[C@@H](C)C1 [cycloheximide]
- sensitivity of TRPM2 expressing cells to cycloheximide vs cells not over-expressing the channel ([1]; 0-10 μg/ml cycloheximide, 16 h): no significant increased sensitivity

Compound: NC(=O)c1cccnc1 [nicotinamide]
- NAD+-dependent histone deacetylase activity of protein extracts (Sir2 homologs): inhibited
- development of diabetes [2]: suppress the development of diabetes
- effect on puromycin-induced death of CRI-G1 cells (CRI-G1 cells): blocked
- protection from puromycin-induced cell death at high puromycin ([1]; 500 μM nicotinamide, 50 μM puromycin): suppressed
- protection from puromycin-induced cell death ([1]; 500 μM nicotinamide, up to 20 μM puromycin, 16 h): completely protect

Compound: O-acetyl-ADP ribose [OAADPr]
- spontaneous breakdown of OAADPr to ADPr in the patch pipette [3]: 5-10%
- TRPM2 gating in whole cell recordings (TRPM2 channel): induces TRPM2 gating
- average currents induced (endogenous TRPM2 channel): ~2 nA

— patent US8440638B2, “Compositions and methods for modulating calcium flux, glucose homeostasis and apoptosis” (Wisconsin Alumni Research Foundation, priority 2004, dated 2013)
